Measured values: patent publication US20260000642A1 (Tay Therapeutics Limited, priority 2022, published 2026)
pIC50: −log10 of the molar value. One block for each compound: values may come before it.

Assays:
[1] = test system: IL-17A; assay: Human PBMC assay, IL-17A by ELISA (CD2/CD3/CD28 bead stimulation); format: cell-based; details: 72 hours
Protocol: (§1) CD2, CD3, and CD28 antibody-coated beads from the T-cell activation/expansion kit (Miltenyi Biotec) were added to the PBMC at a bead-to-cell ratio of 1:2. The mixture of PBMCs and beads were seeded into the wells of the round-bottom 96-well plate at a concentration of 2×10^5 cells/well in a total volume of 200 μL. The cells were cultured for 72 hours at 37° C. and 5% CO2 and then supernatants were collected and IL-17A and IL-22 levels were measured by ELISA. […] The final compound concentration ranged from 30,000 nM to 0.005 nM and the final DMSO concentration per well was 0.3%. PBMCs were seeded at approximately […] in the wells of the 96-well tissue culture plate in a total volume of 190 μL. The plate was incubated for 1 hour at 37° C. and 5% CO2. […] The cells were then cultured for 24 hours at 37° C. and 5% CO2. The supernatant was collected and CXCL10 levels were measured by ELISA.

[2] = test system: IL-22; assay: Human PBMC assay, IL-22 by ELISA (CD2/CD3/CD28 bead stimulation); format: cell-based; details: 72 hours
Protocol: as §1

[3] = test system: CXCL10; assay: Human PBMC assay, CXCL10 by ELISA (IFN-γ stimulation); format: cell-based
Protocol: The impact of Examples 23, 80, and 101 on IL-17A, IL-22, and CXCL10 levels was analyzed in cryopreserved human peripheral blood mononuclear cells (PBMC) by ELISA.
For IL-17A and IL-22 assays, Examples 23, 80, and 101 were serially diluted from 10 mM in DMSO and further diluted in assay media to 100× the required final concentration, of which, 2 μL was added per well to a round-bottom 96-well tissue culture plate where the final DMSO concentration per well was 0.1%. CD2, CD3, and CD28 antibody-coated beads from the T-cell activation/expansion kit (Miltenyi Biotec) were added to the PBMC at a bead-to-cell ratio of 1:2. The mixture of PBMCs and beads were seeded into the wells of the round-bottom 96-well plate at a concentration of 2×10^5 cells/well in a total volume of 200 μL. The cells were cultured for 72 hours at 37° C. and 5% CO2 and then supernatants were collected and IL-17A and IL-22 levels were measured by ELISA. For the CXCL10 assay, Examples 23, 80, and 101 were serially diluted from 10 mM in DMSO and further diluted in assay media to 100× the required final concentration, of which 2 μL was added per well to a 96-well tissue culture plate. The final compound concentration ranged from 30,000 nM to 0.005 nM and the final DMSO concentration per well was 0.3%. PBMCs were seeded at approximately […] in the wells of the 96-well tissue culture plate in a total volume of 190 μL. The plate was incubated for 1 hour at 37° C. and 5% CO2. The cells were then stimulated with IFN-γ (15 ng/mL final concentration) in a volume of 10 μL. The cells were then cultured for 24 hours at 37° C. and 5% CO2. The supernatant was collected and CXCL10 levels were measured by ELISA.

[4] = Plasma stability assay, rat plasma; format: in vitro ADME; details: 37° C.
Protocol: Exemplary compounds of the disclosure are stable upon incubation in mouse plasma. Stability is expressed as a % remaining after 120 minutes. The experimental methods and results (Table 2) are provided hereinafter.
Plasma Stability Assay, Method 1
From stock solution of compound in 10 mM DMSO, a working solution of 1 mM is prepared by diluting the compound in DMSO. To 398 μL of plasma pre-warmed at 37° C. for 15 minutes), 2 μL of working solution of compound is added, resulting in a final concentration of 5 μM (0.5% DMSO) for the compound. The sample is then incubated at 37° C. Aliquot is withdrawn at specified time-points (0, 15, 30, 60 and 120 mins). The reaction is stopped by addition of 450 μL cold acetonitrile containing internal standard (IS). […] Aliquots of the supernatant is analysed using LC-MS/MS. The percent remaining of the compound at each time point is calculated with respect to the control sample (0 min time-point).
Plasma Stability Assay, Method 2
A working solution of compound (500 μM) is prepared in DMSO (100%). To 735 μL of plasma, 15 μL of working solution of compound is added—resulting in a final concentration of 10 μM (2% DMSO) for the compound. The sample is then incubated at 37° C. Aliquot is withdrawn at time-points—0, 15, 30, 60, 90 and 120 mins. The reaction is stopped by using chilled acetonitrile containing internal standard (IS). The samples are centrifuged and the supernatants analyzed using LC-MS/MS. The percent remaining of the compound at each time point is calculated with respect to the control sample (0 min time-point).

[5] = Plasma stability assay, human plasma; format: in vitro ADME; details: 37° C., Method 1 (5 μM)
[6] = Intrinsic clearance in liver microsomes, mouse; format: in vitro ADME; details: pH 7.4, mouse liver microsomes 0.5 mg/mL, Method 1, read-out: Half-Life (T1/2) (min) Mouse
Protocol: (§2) BET protein inhibitors with a long half-life in liver microsomes from various species are in some embodiments promising oral drug candidates. Some of the exemplary compounds of the current disclosure have a long half-life in liver microsomes, expressed in minutes. The experimental methods and results (Table 3) are provided hereinafter.
(§3) Intrinsic Clearance in Liver Microsomes Assay, Method 1
(§4) From stock solution of compound on 10 mM DMSO, a working solution of 0.1 mM is prepared by diluting the compound in DMSO. 6.25 μL of a 20 mg/mL solution of microsomes in PBS pH 7.4 buffer is added to 216.25 μL PBS pH 7.4 buffer (final microsome concentration—0.5 mg/mL). 25 μL of 10 mM solution of NADPH in PBS pH 7.4 buffer is added to the incubations (final NADPH concentration—1 mM). The mixture is pre-warmed to 37° C. for 10 minutes. 2.5 μL of test compound working solution is added (final compound concentration—1 μM with 1% DMSO). […] The percent compound remaining at each time point is calculated with respect to that of the 0.5 min sample. The data are analysed to calculate half-life. […]
(§5) A 50 mM stock solution (in DMSO) is prepared for the compound. […] The samples are centrifuged, and the supernatants analysed by LC-MS/MS. The percent compound remaining at each time point is calculated with respect to that of the 0 min sample. The data are then analysed to calculate half-life and intrinsic clearance (CLint). […]

[7] = Intrinsic clearance in liver microsomes, rat; format: in vitro ADME; details: pH 7.4, rat liver microsomes 0.5 mg/mL, Method 1, read-out: Half-Life (T1/2) (min) Rat
Protocol: as §2, §3, §4, §5

[8] = Sprague-Dawley rat pharmacokinetics (IV and PO); format: in vivo; details: male Sprague-Dawley rats, cassette mode, Method 1
From the text: BET protein inhibitors with a long half-life and good oral bioavailability in in vivo DMPK parameters are promising oral drug candidates. Some of the exemplary compounds of the current disclosure have a long half-life and good oral bioavailability in in vivo DMPK parameters in the Sprague-Dawley rat following intravenous (IV) and oral (PO) dosing. The experimental methods and results (Table 5) are provided hereinafter.
Sprague-Dawley Rat Pharmacokinetics, Method 1
Compounds were formulated in 5% DMSO, 40% PEG-400, 55% Milli-Q water at a concentration of 0.2 mg/mL for IV and at 0.5 mg/mL for PO. Two male Sprague-Dawley rats per arm were dosed with up to 5 compounds in cassette mode, which each compound being dosed at 1 mg/kg IV and 5 mg/kg PO. Blood was sampled at various timepoints and plasma isolated. 50 μL of plasma with 5 μL of blank Sprague-Dawley rat plasma were added to 200 μL of acetonitrile containing IS mixture. The samples were vortexed for 30 s. After centrifugation at 4 degrees Celsius, 3900 rpm for 15 min, the supernatant was diluted 3 times with water. 20 μL of diluted supernatant was injected into the LC/MS/MS system for quantitative analysis and concentration of analyte determined by comparison with matrix matched standard curve. WinNonlin (Phoenix™, version 8.3) or other similar software may be used for pharmacokinetic calculations.

[9] = target: T1, BRD4 BD1 (Homo sapiens, UniProt O60885); assay: NanoBRET bromodomain assay, NanoLuc-BRD4-BD1 fusion vector in HEK293 cells; format: cell-based; details: top concentration 10 μM
T1 construct: HEK293 cells were transfected using NanoLuc-BRD4-BD1 or NanoLuc-BRD4-BD2 fusion vectors; host or cells: HEK293
From the text: (§6) Bromodomain Assay Procedure

[10] = target: T2, BRD4 BD2 (Homo sapiens, UniProt O60885); assay: NanoBRET bromodomain assay, NanoLuc-BRD4-BD2 fusion vector in HEK293 cells; format: cell-based; details: NanoBRET, HEK293 cells, top concentration 10 μM
T2 construct: HEK293 cells were transfected using NanoLuc-BRD4-BD1 or NanoLuc-BRD4-BD2 fusion vectors; host or cells: HEK293
From the text: as §6

- IC50 for IL-17A relative to GSK620 [1]: increased mean 1050
- IC50 for IL-22 relative to GSK620 [2]: decreased mean 1050
SMILES: CNC(=O)c1[nH]c(-c2cnn(C(C)C)c2)cc1O[C@@H](C)c1ccccc1 [Example 80, (S)-5-(1-isopropyl-1H-pyrazol-4-yl)-N-methyl-3-(1-phenylethoxy)-1H-pyrrole-2-carboxamide]
- selectivity to induction of CXCL10 relative to IL-17A and IL-22 [3]: showed selectivity

- Plasma Stability (% remaining at 120 minutes) Rat ([4]; Method 1 (5 μM)): >99%
- Plasma Stability (% remaining at 120 minutes) Human [5]: >99%
- half-life at 1 μM [6]: 70 min
- half-life at 1 μM [7]: > 60 min
- bioavailability ([8]; rat, plasma, PO 5 mg/kg (IV 1 mg/kg), read-out: PO F (%)): 60%
SMILES: CNC(=O)c1[nH]c(C(=O)N[C@H]2CC[C@H](O)CC2)cc1O[C@@H](C)c1ccccc1 (single isomer, unassigned) [Example 97]

- pIC50 [9]: ≤ 5.00
- pIC50 [10]: 6.70 to 7.30
- Plasma Stability (% remaining at 120 minutes) Rat ([4]; Method 2 (10 μM)): 81%
- IV T1/2 ([8]; IV 1 mg/kg): 0.6 h
- PO F (%) ([8]; PO 5 mg/kg (IV 1 mg/kg)): 15%
SMILES: CNC(=O)c1[nH]c(C(=O)NC2COC2)cc1OC(C)c1ccc(Cl)cc1 (single isomer, unassigned) [Example 31, 3-(1-(4-chlorophenyl)ethoxy)-N^2-methyl-N^5-(oxetan-3-yl)-1H-pyrrole-2,5-dicarboxamide]

- IC50 for IL-17A relative to GSK620 [1]: decreased mean 1050
- IC50 for IL-22 relative to GSK620 [2]: decreased mean 1050
SMILES: CNC(=O)c1[nH]c(-c2ncc(C)[nH]2)cc1O[C@@H](C)c1ccccc1 [Example 23, (S)—N-methyl-5-(5-methyl-1H-imidazol-2-yl)-3-(1-phenylethoxy)-1H-pyrrole-2-carboxamide]
- selectivity to induction of CXCL10 relative to IL-17A and IL-22 [3]: showed selectivity
